Data: patent publication EP2510787A1, “Propenoates as fungicides” (Bayer CropScience AG, priority 2011, dated 2012)

Tested on: not listed separately
Experiment: logP measurement by HPLC on reversed phase columns (EEC directive 79/831 Annex V.A8)
Assay type: physicochemical
Details: pH 2.7, pH 2,7 with 0,1 % formic acid in water and acetonitrile, linear gradient 10 % to 95 % acetonitrile

| Structure (SMILES) | chromatographic logP |
| --- | --- |
| C#CCC(C)OC(=C(C#N)C(=O)OCC)c1cccnc1Cl (centres unmarked) [Example 10] | 2.61 |
| CCOC(=O)C(C#N)=C(OC(C)CC(C)(C)C)c1cccnc1Cl (centres unmarked) [Example 4] | 3.92 |
| CCOC(=O)C(C#N)=C(SC(C)C(C)C)c1cccnc1Cl (centres unmarked) [Example 1] | 3.8 |
| CCOC(=O)C(C#N)=C(SC(C)C(C)C)c1cn(C)nc1C(F)F (centres unmarked) [Example 19] | 3.3 |
| CCOC(=O)C(C#N)=C(OC(C)C(C)(C)C)c1cccnc1Cl (centres unmarked) [Example 5] | 3.57 |
| CCOC(=O)C(C#N)=C(OC(C)C1=NOCCO1)c1cccnc1Cl (centres unmarked) [Example 9] | 2.2 |
| CCOC(=O)C(C#N)=C(OC(C)COC)c1cccnc1Cl (centres unmarked) [Example 8] | 2.44 |
| CCOC(=O)C(C#N)=C(O[C@@H](C)C(=O)OC)c1cccnc1Cl [Example 20] | 2.4 |
| CCOC(=O)C(C#N)=C(O[C@H](C)C(=O)OCC)c1cccnc1Cl [Example 13] | 2.71 |
| CCOC(=O)C(C#N)=C(OC(C)C(C)C)c1ccnn1C(F)F (centres unmarked) [Example 15] | 3.25 |
| CCOC(=O)C(C#N)=C(OC(C)C(C)C)c1cn(C)nc1C(F)F (centres unmarked) [Example 12] | 2.98 |
| CCOC(=O)C(C#N)=C(OC(C)C(C)C)c1scnc1Cl (centres unmarked) [Example 16] | 3.37 |
| CCOC(=O)C(C#N)=C(SC(C)C(C)C)c1ccnn1C(F)F (centres unmarked) [Example 6] | 3.59 |
| CCOC(=O)C(C#N)=C(SC(C)C(C)C)c1scnc1Cl (centres unmarked) [Example 22] | 3.79 |
| CCOC(=O)C(C#N)=C(OC(C)c1ccccn1)c1cccnc1Cl (centres unmarked) [Example 23] | 2.39 |
| CCOC(=O)C(C#N)=C(SC(C)CC)c1cn(C)nc1C(F)F (centres unmarked) [Example 3] | 3.11 |
| CCCC(C)SC(=C(C#N)C(=O)OCC)c1cccnc1Cl (centres unmarked) [Example 25] | 3.78 |
| CCOC(=O)C(C#N)=C(OC1(C(=O)OCC)CC1)c1cccnc1Cl [Example 24] | 2.9 |
| CCOC(=O)C(C#N)=C(OC(C)c1ccc(Cl)nc1)c1cccnc1Cl (centres unmarked) [Example 11] | 2.9 |
| CCOC(=O)C(C#N)=C(OC(C)C(CC)CC)c1cccnc1Cl (centres unmarked) [Example 2] | 3.96 |
| CCOC(=O)C(C#N)=C(OC(C)C=C(Cl)Cl)c1cccnc1Cl (centres unmarked) [Example 26] | 3.33 |
| CCOC(=O)C(C#N)=C(OC1CCCCC1C)c1cccnc1Cl (centres unmarked) [Example 21] | 3.74 |
| CCOC(=O)C(C#N)=C(OC(C)C(C)C)c1cccnc1Cl (centres unmarked) [Example 7] | 3.27 |
| CCOC(=O)C(C#N)=C(SC(C)c1ccccn1)c1cccnc1Cl (centres unmarked) [Example 17] | 2.51 |

Tested on: Plasmopara viticola
Experiment: Plasmopara test (grapevines) / preventive
Assay type: in vivo
Details: preventive spray, 100 ppm of active ingredient, evaluated 6 days after the inoculation, 100 % = no disease
Description: Plasmopara test (grapevines) / preventive
To produce a suitable preparation of active compound, 1 part by weight of active compound is mixed with the stated amounts of solvent and emulsifier, and the concentrate is diluted with water to the desired concentration.
To test for preventive activity, young plants are sprayed with the preparation of active compound at the stated rate of application. After the spray coating has dried on, the plants are inoculated with an aqueous spore suspension of Plasmopara viticola and then remain for 1 day in an incubation cabinet at approximately 20°C and a relative atmospheric humidity of 100 %. The plant is subsequently placed for 4 days in a greenhouse at approximately 21°C and a relative atmospheric humidity of approximately 90 %. The plants are then misted and placed for 1 day in an incubation cabinet.
The test is evaluated 6 days after the inoculation. 0 % means an efficacy which corresponds to that of the untreated control, while an efficacy of 100 % means that no disease is observed.

| Structure (SMILES) | Efficacy in % |
| --- | --- |
| CCOC(=O)C(C#N)=C(SC(C)C(C)C)c1cccnc1Cl (centres unmarked) [Example 1] | 88% |
| CCOC(=O)C(C#N)=C(SC(C)C(C)C)c1cn(C)nc1C(F)F (centres unmarked) [Example 19] | 92% |
